In ChEMBL document CHEMBL1201862, “PubChem BioAssay data set” (2004):
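How tested: cells in 96-well plates exposed to compound for 48 hours at five concentrations. GI50: concentration for 50% inhibition of growth.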 Active and inactive are the calls of the source. No stated cut-off is given here; in the data, active = GI50 up to about 1.1 µM and inactive = higher.

Columns and labels:
Test in all cases: growth of human tumour cells (NCI), 48 h
786-0 = tested on: 786-0
A498 = tested on: A498
A549 = tested on: A549
BT-549 = tested on: BT-549
CAKI-1 = tested on: CAKI-1
CCRF-CEM = tested on: CCRF-CEM
COLO 205 = tested on: COLO 205
DU-145 = tested on: DU-145
EKVX = tested on: EKVX
HCT-116 = tested on: HCT-116
HCT-15 = tested on: HCT-15
HOP-62 = tested on: HOP-62
HT-29 = tested on: HT-29
Hs-578T = tested on: Hs-578T
IGROV-1 = tested on: IGROV-1
K562 = tested on: K562
KM12 = tested on: KM12
LOX IMVI = tested on: LOX IMVI
M14 = tested on: M14
MCF7 = tested on: MCF7
MDA-MB-231 = tested on: MDA-MB-231
MDA-MB-435 = tested on: MDA-MB-435
MDA-N = tested on: MDA-N
MOLT-4 = tested on: MOLT-4
Malme-3M = tested on: Malme-3M
NCI-H226 = tested on: NCI-H226
NCI-H23 = tested on: NCI-H23
NCI-H522 = tested on: NCI-H522
NCI/ADR-RES = tested on: NCI/ADR-RES
OVCAR-3 = tested on: OVCAR-3
OVCAR-4 = tested on: OVCAR-4
OVCAR-5 = tested on: OVCAR-5
OVCAR-8 = tested on: OVCAR-8
PC-3 = tested on: PC-3
RPMI-8226 = tested on: RPMI-8226
RXF 393 = tested on: RXF 393
SF-268 = tested on: SF-268
SF-295 = tested on: SF-295
SK-MEL-28 = tested on: SK-MEL-28
SK-MEL-2 = tested on: SK-MEL-2
SK-MEL-5 = tested on: SK-MEL-5
SK-OV-3 = tested on: SK-OV-3
SN12C = tested on: SN12C
SNB-19 = tested on: SNB-19
SNB-75 = tested on: SNB-75
SW-620 = tested on: SW-620
T47D = tested on: T47D
TK-10 = tested on: TK-10
U-251 = tested on: U-251
UACC-257 = tested on: UACC-257
UACC-62 = tested on: UACC-62
UO-31 = tested on: UO-31
ACHN = tested on: ACHN
HL-60 = tested on: HL-60
NCI-H460 = tested on: NCI-H460
SF-539 = tested on: SF-539
SR = tested on: SR

Measured: GI50

Cc1ccc2c(=O)cc(Cc3csc4ccccc34)[nH]c2n1
inactive: 786-0 46.2 µM | A498 32.3 µM | A549 27.4 µM | BT-549 23.3 µM | CAKI-1 44.3 µM | CCRF-CEM 41.4 µM | COLO 205 26.7 µM | DU-145 50.9 µM | EKVX 29.2 µM | HCT-116 28.8 µM | HOP-62 59.2 µM | HT-29 35.1 µM | Hs-578T 12.7 µM | IGROV-1 11.7 µM | K562 43.5 µM | KM12 21.3 µM | LOX IMVI 17.5 µM | M14 32 µM | MCF7 35.2 µM | MDA-MB-231 52.5 µM | MDA-MB-435 32.6 µM | MDA-N 64.7 µM | MOLT-4 38.3 µM | Malme-3M 12.4 µM | NCI-H226 18.1 µM | NCI-H23 19.3 µM | NCI-H522 13.6 µM | NCI/ADR-RES 19.8 µM | OVCAR-3 28.8 µM | OVCAR-4 21.1 µM | OVCAR-5 60 µM | OVCAR-8 36 µM | PC-3 67 µM | RPMI-8226 22.3 µM | RXF 393 25.3 µM | SF-268 21.3 µM | SF-295 26 µM | SK-MEL-28 50.5 µM | SK-MEL-2 79.3 µM | SK-MEL-5 16.4 µM | SK-OV-3 67 µM | SN12C 42.9 µM | SNB-19 39.7 µM | SNB-75 16.6 µM | SW-620 40.7 µM | T47D 19 µM | TK-10 53.5 µM | U-251 69.8 µM | UACC-257 38.6 µM | UACC-62 27 µM | UO-31 22.4 µM
12.1 µM: HCT-15

COc1ccc(N[S+]([O-])CCCc2ccccc2)cc1 (configuration not stated)
inactive: 786-0 > 100 µM | A549 65 µM | ACHN > 100 µM | BT-549 4.16 µM | CCRF-CEM > 100 µM | COLO 205 > 100 µM | DU-145 > 100 µM | EKVX > 100 µM | HCT-116 > 100 µM | HL-60 67.3 µM | HOP-62 > 100 µM | HT-29 > 100 µM | Hs-578T > 100 µM | IGROV-1 72.6 µM | K562 75.5 µM | KM12 34.8 µM | LOX IMVI > 100 µM | MCF7 81.1 µM | MDA-MB-231 > 100 µM | MDA-MB-435 > 100 µM | MDA-N > 100 µM | MOLT-4 > 100 µM | Malme-3M > 100 µM | NCI-H226 > 100 µM | NCI-H23 > 100 µM | NCI-H460 > 100 µM | NCI-H522 24.1 µM | NCI/ADR-RES 58.1 µM | OVCAR-3 88.7 µM | OVCAR-4 > 100 µM | OVCAR-5 > 100 µM | OVCAR-8 > 100 µM | RPMI-8226 70 µM | SF-268 > 100 µM | SF-295 > 100 µM | SF-539 > 100 µM | SK-MEL-28 > 100 µM | SK-MEL-2 > 100 µM | SK-MEL-5 44.8 µM | SN12C > 100 µM | SNB-19 > 100 µM | SR 88.5 µM | SW-620 > 100 µM | T47D 14.7 µM | TK-10 > 100 µM | U-251 72.3 µM | UACC-257 65 µM | UACC-62 44.9 µM | UO-31 38.7 µM
64 µM: HCT-15
